Test results taken from US10899962B2, “Camera module, lubricant composition, and electronic device” (Samsung Electro-Mechanics Co., Ltd., priority 2018, dated 2021).

Assay: solubility of the fluorinated fluorescent material at varied concentrations (FIG. 8, FIG. 11)
Assay type: physicochemical
Settings: concentrations shown 0.25 wt %, 0.5 wt %, and 1 wt %
From the text: More specifically, when using a compound represented by Chemical Formula 1, for example, a compound represented by Chemical Formula 1-1 for the fluorinated fluorescent material, the fluorinated fluorescent material is included, for example, in an amount from 0.1 wt % to less than 0.5 wt %, or even, for example, in an amount from 0.1 wt % to 0.3 wt %. This can be confirmed from FIG. 8 to FIG. 10. […] Referring to the drawings, it can be seen that solubility issues occur in concentrations of 0.5 wt % or higher. FIG. 9 and FIG. 10 show the fluorescence of a lubricant composition containing 0.25 wt % of a compound represented by Chemical Formula 1-1. […] From the drawings, it can be seen that the presence of the lubricant can be easily detected after application of the lubricant composition.
Furthermore, when using a compound represented by Chemical Formula 2, for example, a compound represented by Chemical Formula 2-1 for the fluorinated fluorescent material, the fluorinated fluorescent material is included, for example, in an amount from 0.01 wt % to less than 1.0 wt %, or even included, for example, in an amount from 0.03 wt % to 0.15 wt %. This can be confirmed from FIG. 11. […] Referring to the drawing, it can be seen that solubility issues occur in concentrations of 1.0 wt % or higher.

CCN(CC)c1ccc2c(C)cc(=O)oc2c1 [Chemical Formula 1-1]
concentrations in which solubility issues occur: ≥ 0.5 wt %
